From article PMC2930754 (Chemical communications (Cambridge, England), 2010)

Legend:
tubulin = experiment: Promotion of in vitro tubulin polymerization; format: biochemical; details: in vitro tubulin assembly
[1] = tested on: A2780 ovarian cancer cells; experiment: Antiproliferative activity to A2780 ovarian cancer cells; format: cell-based; details: Homo sapiens, A2780, read-out: IC50 A2780 (antiproliferative activity)

C/C1=C/C[C@@H](/C(C)=C/c2csc(C)n2)OC(=O)C[C@H](O)C(C)(C)C(=O)[C@H](C)[C@@H](O)[C@@H](C)CCC1 [Compound 4, epothilone D]
ED50, Tb polym. (promotion of tubulin polymerization) (tubulin): 440 ± 20 nM | IC50 [1]: 6.8 ± 1.7 nM

C/C(=C\c1csc(C)n1)[C@@H]1C[C@@H]2O[C@]2(C)CCC[C@H](C)[C@H](O)[C@@H](C)C(=O)C(C)(C)[C@@H](O)CC(=O)O1 [Compound 2, epothilone B]
IC50 [1]: 1.9 ± 0.2 nM
